Experiments:
dopamine [1] = test: Apomorphine antagonism in dogs (absence of apomorphine-induced emesis); assay type: in vivo, dog; conditions: Canis lupus familiaris
Procedure: Apomorphine Antagonism in Dogs
This test is described in Psychopharmacol. 78, 210-213 (1982) and provides--besides a measure of the potency--a good measure of the duration of action of the tested compounds as dopamine antagonists. Apomorphine (0.31 mg/kg, sc; 4 times the ED95) induced emesis in all control dogs. At different time intervals before the apomorphine challenge, the dogs were pretreated with different doses (iv, sc or po) of the test compound (1). Complete absence of emesis for 1 hour after the challenge was adopted as the criterion for apomorphine antagonism in dogs. Listed are the ED50 values (mg/kg) obtained with compound (1) at different intervals after iv, sc or po administration.

dopamine [2] = test: Apomorphine antagonism in rats (inhibition of apomorphine-induced agitation and stereotypy); assay type: in vivo; conditions: Rattus norvegicus, read-out: ED50 for inhibition of apomorphine-induced symptoms
Description: Apomorphine Antagonism in Rats
The test procedure is described in Arch. Int. Pharmacodyn. […] In Table 1 are listed the ED50 values (mg/kg) for inhibition of apomorphine-induced symptoms obtained with compound (1) and the subsequent apomorphine challenge at different intervals (time).

dopamine [3] = test: Amphetamine antagonism in rats (agitation and oxygen hyperconsumption); assay type: in vivo; conditions: Rattus norvegicus, 0.75 h, compound sc, after 45 min amphetamine 2.5 mg/kg sc
Procedure: Amphetamine Antagonism in Rats
This test procedure is described in Industrial Pharmacology, Part II, Antidepressants, eds, S. Fielding and H. Lal, p. 125-141, Futura Publishing Company (1975). Solvent (controls) or the test compound (1) were injected sc, followed after 45 min by amphetamine (2.5 mg/kg, sc). Starting 15 min after the amphetamine injection, agitation and consumption of oxygen were evaluated every 15 min over a period of 1 hour. Agitation was scored 3 (pronounced), 2 (moderate), 1 (slight) and 0 (absent), the total score maximally being 4×3=12. Oxygen consumption was measured on a mercury manometer simultaneously. Significant inhibition required a total score for agitation of less than 11 (0.3% in controls) or a final scale reading for oxygen consumption of less than 105 Hg units (1.8% in controls; mean=118 units). Blockade of amphetamine-induced agitation was considered complete at a total score of less than 4 and that of oxygen consumption at a scale reading of less than 90 Hg units (i.e. the agitation score and oxygen consumption level of normal rats which is never observed in amphetamine-treated controls). Listed are the ED50 values (mg/kg) obtained with compound (1) and the subsequent amphetamine challenge.

Cc1nc2c(C)cccn2c(=O)c1CCN1CCC(c2noc3cc(F)ccc23)CC1 [Compound 1, 3-[2-[4-(6-fluoro-1,2-benzisoxazol-3-yl)-1-piperidinyl]ethyl]-2,9-dimethyl-4H-pyrido[1,2-a]-pyrimidin-4-one]
ED50 (dopamine [1]; iv, 0.5 h before apomorphine 0.31 mg/kg sc, read-out: ED50 (iv)): 1.2 µg/kg | ED50 (dopamine [1]; iv, 1 h before apomorphine 0.31 mg/kg sc, read-out: ED50 (iv)): 1.1 µg/kg | ED50 (dopamine [1]; iv, 2 h before apomorphine 0.31 mg/kg sc, read-out: ED50 (iv)): 1.2 µg/kg | ED50 (dopamine [1]; iv, 4 h before apomorphine 0.31 mg/kg sc, read-out: ED50 (iv)): 0.79 µg/kg | ED50 (dopamine [1]; iv, 8 h before apomorphine 0.31 mg/kg sc, read-out: ED50 (iv)): 0.89 µg/kg | ED50 (dopamine [1]; iv, 16 h before apomorphine 0.31 mg/kg sc, read-out: ED50 (iv)): 1.2 µg/kg | ED50 (dopamine [1]; iv, 32 h before apomorphine 0.31 mg/kg sc, read-out: ED50 (iv)): 2.9 µg/kg | ED50 (dopamine [1]; po, 0.5 h before apomorphine 0.31 mg/kg sc, read-out: ED50 (po)): 5 µg/kg | ED50 (dopamine [1]; po, 1 h before apomorphine 0.31 mg/kg sc, read-out: ED50 (po)): 1.5 µg/kg | ED50 (dopamine [1]; po, 2 h before apomorphine 0.31 mg/kg sc, read-out: ED50 (po)): 0.89 µg/kg | ED50 (dopamine [1]; po, 4 h before apomorphine 0.31 mg/kg sc, read-out: ED50 (po)): 1.2 µg/kg | ED50 (dopamine [1]; po, 8 h before apomorphine 0.31 mg/kg sc, read-out: ED50 (po)): 0.99 µg/kg | ED50 (dopamine [1]; po, 16 h before apomorphine 0.31 mg/kg sc, read-out: ED50 (po)): 2.4 µg/kg | ED50 (dopamine [1]; po, 32 h before apomorphine 0.31 mg/kg sc, read-out: ED50 (po)): 6.3 µg/kg | ED50 (dopamine [1]; sc, 0.5 h before apomorphine 0.31 mg/kg sc, read-out: ED50 (sc)): 4.5 µg/kg | ED50 (dopamine [1]; sc, 1 h before apomorphine 0.31 mg/kg sc, read-out: ED50 (sc)): 2.4 µg/kg | ED50 (dopamine [1]; sc, 2 h before apomorphine 0.31 mg/kg sc, read-out: ED50 (sc)): 1.4 µg/kg | ED50 (dopamine [1]; sc, 4 h before apomorphine 0.31 mg/kg sc, read-out: ED50 (sc)): 0.89 µg/kg | ED50 (dopamine [1]; sc, 8 h before apomorphine 0.31 mg/kg sc, read-out: ED50 (sc)): 1.2 µg/kg | ED50 (dopamine [1]; sc, 16 h before apomorphine 0.31 mg/kg sc, read-out: ED50 (sc)): 2.2 µg/kg | ED50 (dopamine [1]; sc, 32 h before apomorphine 0.31 mg/kg sc, read-out: ED50 (sc)): 4.5 µg/kg | ED50 (dopamine [2]; Time 0.5 between compound and apomorphine challenge (1.25 mg/kg iv)): 21 µg/kg | ED50 (dopamine [2]; Time 1 between compound and apomorphine challenge (1.25 mg/kg iv)): 18 µg/kg | ED50 (dopamine [2]; Time 2 between compound and apomorphine challenge (1.25 mg/kg iv)): 32 µg/kg | ED50 (dopamine [2]; Time 4 between compound and apomorphine challenge (1.25 mg/kg iv)): 68 µg/kg | ED50 (dopamine [2]; Time 8 between compound and apomorphine challenge (1.25 mg/kg iv)): 290 µg/kg | ED50 (dopamine [3]; blockade: agitation score <4, read-out: ED50, blockade of amphetamine-induced agitation): 64 µg/kg | ED50 (dopamine [3]; blockade: scale reading <90 Hg units, read-out: ED50, blockade of oxygen hyperconsumption): 190 µg/kg | ED50 (dopamine [3]; inhibition: agitation score <11, read-out: ED50, inhibition of amphetamine-induced agitation): 14 µg/kg | ED50 (dopamine [3]; inhibition: scale reading <105 Hg units, read-out: ED50, inhibition of oxygen hyperconsumption): 57 µg/kg

Reference: patent US5482943A, “(6-fluoro-1,2-benzisoxazol-3-yl)-1-piperidinyl-alkyl-(2, 9-disubstituted-4H-pyrido[1,2-a]pyrimidin-4-one) derivatives” (Janssen Pharmaceutica N.V., priority 1990, dated 1996)
